Experimental data: ChEMBL document CHEMBL2021889, “Multipotent MAO and cholinesterase inhibitors for the treatment of Alzheimer's disease: synthesis, pharmacological analysis and molecular modeling of heterocyclic substituted alkyl and cycloalkyl propargyl amine” (Eur J Med Chem, 2012)

Tests used:
[1] = biological target: T1, Acetylcholinesterase (Electrophorus electricus, UniProt O42275)
Description: Inhibition of electric eel AChE using acetylthiocholine iodide as substrate after 15 mins by Ellman's method

[2] = biological target: T2, Butyrylcholinesterase (Equus caballus, UniProt Q9N1N9)
Description: Inhibition of equine serum BChE using butyrylthiocholine iodide as substrate after 15 mins by Ellman's method

[3] = biological target: T3, Amine oxidase [flavin-containing] B (Rattus norvegicus, UniProt P19643); assay: biochemical
T3 sequence (P19643 whole entry): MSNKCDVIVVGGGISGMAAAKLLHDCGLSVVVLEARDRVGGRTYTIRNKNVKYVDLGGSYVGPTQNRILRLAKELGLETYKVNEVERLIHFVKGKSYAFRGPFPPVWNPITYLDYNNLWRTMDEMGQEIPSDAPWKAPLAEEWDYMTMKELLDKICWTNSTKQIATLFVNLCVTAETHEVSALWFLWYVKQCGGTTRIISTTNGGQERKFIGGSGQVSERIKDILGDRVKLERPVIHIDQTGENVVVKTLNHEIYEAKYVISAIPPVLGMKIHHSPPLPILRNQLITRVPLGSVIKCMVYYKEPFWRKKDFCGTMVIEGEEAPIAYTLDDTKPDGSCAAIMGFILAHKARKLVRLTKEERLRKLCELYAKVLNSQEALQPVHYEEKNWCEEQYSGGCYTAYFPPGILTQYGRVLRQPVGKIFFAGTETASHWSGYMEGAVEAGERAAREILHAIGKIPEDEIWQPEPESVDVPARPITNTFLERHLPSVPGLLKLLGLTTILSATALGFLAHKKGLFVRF
Description: Inhibition of mitochondrial MAO-B in rat liver homogenates using [14C]-phenylethylamine as substrate preincubated for 30 mins by liquid scintillation counting

[4] = biological target: T4, Amine oxidase [flavin-containing] A (Rattus norvegicus, UniProt P21396); assay: biochemical
T4 sequence (P21396 whole entry): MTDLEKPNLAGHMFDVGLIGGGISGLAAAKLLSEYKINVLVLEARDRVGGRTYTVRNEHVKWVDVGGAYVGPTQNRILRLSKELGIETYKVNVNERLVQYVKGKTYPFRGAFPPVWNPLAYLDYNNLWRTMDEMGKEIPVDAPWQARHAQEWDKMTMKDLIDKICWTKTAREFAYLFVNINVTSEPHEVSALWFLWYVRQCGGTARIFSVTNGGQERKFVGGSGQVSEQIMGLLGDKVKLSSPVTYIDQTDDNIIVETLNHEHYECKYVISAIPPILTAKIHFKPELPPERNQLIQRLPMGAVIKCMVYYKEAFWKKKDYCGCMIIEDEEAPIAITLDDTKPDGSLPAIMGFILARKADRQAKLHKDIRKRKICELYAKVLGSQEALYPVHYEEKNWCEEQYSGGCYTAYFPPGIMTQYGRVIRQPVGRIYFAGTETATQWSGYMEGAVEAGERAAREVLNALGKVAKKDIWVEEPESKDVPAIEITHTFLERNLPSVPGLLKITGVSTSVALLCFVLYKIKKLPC
Description: Inhibition of mitochondrial MAO-A in rat liver homogenates using [14C]-(5-hydroxy-triptamine) as substrate preincubated for 30 mins by liquid scintillation counting

[5] = biological target: Acetylcholinesterase (Homo sapiens, UniProt P22303); assay: Inhibition of human recombinant AChE using acetylthiocholine iodide as substrate by Ellman's method
[6] = biological target: Cholinesterase (Homo sapiens, UniProt P06276); assay: Inhibition of human serum BuChE using butyrylthiocholine iodide as substrate by Ellman's method
[7] = biological target: T1, Acetylcholinesterase; assay: Non-competitive inhibition of electric eel AChE using acetylthiocholine as substrate by Lineweaver-Burk plot analysis
[8] = biological target: T2, Butyrylcholinesterase; assay: Competitive inhibition of equine serum BChE using acetylthiocholine as substrate by Lineweaver-Burk plot analysis

T1 sequence (O42275 whole entry): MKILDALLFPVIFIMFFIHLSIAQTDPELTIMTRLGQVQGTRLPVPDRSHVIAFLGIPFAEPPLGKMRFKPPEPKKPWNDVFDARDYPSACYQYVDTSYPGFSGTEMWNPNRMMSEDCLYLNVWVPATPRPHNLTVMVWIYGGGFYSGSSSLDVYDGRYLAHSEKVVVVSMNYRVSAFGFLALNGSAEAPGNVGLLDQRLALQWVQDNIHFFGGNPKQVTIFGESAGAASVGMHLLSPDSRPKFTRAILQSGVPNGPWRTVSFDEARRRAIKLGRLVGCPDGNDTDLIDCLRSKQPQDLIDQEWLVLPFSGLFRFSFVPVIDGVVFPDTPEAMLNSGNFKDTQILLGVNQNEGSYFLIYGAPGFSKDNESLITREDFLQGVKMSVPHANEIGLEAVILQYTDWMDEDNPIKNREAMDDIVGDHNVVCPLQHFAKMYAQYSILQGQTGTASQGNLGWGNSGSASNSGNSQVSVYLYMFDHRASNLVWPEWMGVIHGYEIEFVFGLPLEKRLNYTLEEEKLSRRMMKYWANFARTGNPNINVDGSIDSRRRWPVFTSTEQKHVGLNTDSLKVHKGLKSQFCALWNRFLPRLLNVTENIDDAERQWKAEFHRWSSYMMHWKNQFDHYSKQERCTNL
T2 sequence (Q9N1N9 whole entry): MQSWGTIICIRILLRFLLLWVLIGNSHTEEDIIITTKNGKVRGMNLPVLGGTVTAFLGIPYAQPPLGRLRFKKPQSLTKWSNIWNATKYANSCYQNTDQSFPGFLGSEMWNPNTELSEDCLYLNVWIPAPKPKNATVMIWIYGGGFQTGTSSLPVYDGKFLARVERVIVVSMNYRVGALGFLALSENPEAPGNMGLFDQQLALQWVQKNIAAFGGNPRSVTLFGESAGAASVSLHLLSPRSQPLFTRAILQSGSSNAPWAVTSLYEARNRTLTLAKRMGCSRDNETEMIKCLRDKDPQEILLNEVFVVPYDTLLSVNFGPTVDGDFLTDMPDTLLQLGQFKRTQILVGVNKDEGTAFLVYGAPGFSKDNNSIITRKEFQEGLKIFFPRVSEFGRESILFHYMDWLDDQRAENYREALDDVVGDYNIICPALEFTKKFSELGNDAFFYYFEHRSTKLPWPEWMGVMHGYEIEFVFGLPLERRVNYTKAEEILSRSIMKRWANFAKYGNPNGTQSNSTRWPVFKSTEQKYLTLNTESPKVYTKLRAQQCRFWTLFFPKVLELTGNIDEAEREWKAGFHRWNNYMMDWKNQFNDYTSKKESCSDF
Chain of Cholinesterase (P06276 whole entry): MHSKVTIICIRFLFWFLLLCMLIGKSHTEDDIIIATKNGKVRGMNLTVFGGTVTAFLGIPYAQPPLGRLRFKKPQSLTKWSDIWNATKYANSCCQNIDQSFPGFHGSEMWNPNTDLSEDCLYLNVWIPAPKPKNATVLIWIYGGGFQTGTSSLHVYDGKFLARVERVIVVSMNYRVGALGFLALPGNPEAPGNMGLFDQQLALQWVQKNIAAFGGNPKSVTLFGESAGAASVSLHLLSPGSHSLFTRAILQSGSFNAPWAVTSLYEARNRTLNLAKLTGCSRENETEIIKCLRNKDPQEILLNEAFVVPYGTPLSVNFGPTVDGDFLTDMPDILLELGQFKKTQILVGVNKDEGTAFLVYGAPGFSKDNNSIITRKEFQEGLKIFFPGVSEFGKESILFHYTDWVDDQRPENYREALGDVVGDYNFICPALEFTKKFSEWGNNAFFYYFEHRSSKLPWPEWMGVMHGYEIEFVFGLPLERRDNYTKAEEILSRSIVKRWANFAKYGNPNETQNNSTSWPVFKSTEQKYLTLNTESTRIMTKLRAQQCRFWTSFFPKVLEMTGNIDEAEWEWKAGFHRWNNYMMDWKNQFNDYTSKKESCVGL
Chain of Acetylcholinesterase (Homo sapiens, UniProt P22303) (P22303 whole entry): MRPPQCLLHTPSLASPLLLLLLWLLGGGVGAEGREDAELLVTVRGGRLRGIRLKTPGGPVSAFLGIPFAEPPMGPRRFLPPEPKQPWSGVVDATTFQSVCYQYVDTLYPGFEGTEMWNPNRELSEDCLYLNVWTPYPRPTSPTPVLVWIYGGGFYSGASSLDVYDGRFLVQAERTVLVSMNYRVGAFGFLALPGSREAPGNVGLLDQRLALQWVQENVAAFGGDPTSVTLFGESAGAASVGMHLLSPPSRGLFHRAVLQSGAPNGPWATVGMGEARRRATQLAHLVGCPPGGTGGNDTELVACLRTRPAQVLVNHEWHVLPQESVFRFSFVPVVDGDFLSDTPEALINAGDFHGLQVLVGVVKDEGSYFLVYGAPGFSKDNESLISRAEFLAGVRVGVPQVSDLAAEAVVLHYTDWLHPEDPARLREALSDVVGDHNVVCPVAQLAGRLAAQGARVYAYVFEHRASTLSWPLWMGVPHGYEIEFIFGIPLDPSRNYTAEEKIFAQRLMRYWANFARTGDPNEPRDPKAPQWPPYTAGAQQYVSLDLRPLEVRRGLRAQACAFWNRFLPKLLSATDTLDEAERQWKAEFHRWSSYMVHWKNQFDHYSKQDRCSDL

Compound | IC50 [1] | IC50 [2] | IC50 [3] | IC50 [4] | IC50 [5] | IC50 [6] | Ki [7] | Ki [8]
CNCc1cc2cc(OCc3ccccc3)ccc2n1C | > 100 µM | 11 µM | 44.1 µM | 99.3 µM | – | – | – | –
C#CCN1CCc2nc3nc(N(C)C)c(C#N)cc3c(N)c2C1 | 0.029 µM | > 100 µM | 281 µM | 1000 µM | – | – | – | –
C=C=CCN(C)Cc1cc2cc(OCc3ccccc3)ccc2n1C | > 100 µM | 14 µM | – | – | – | – | – | –
C#CCN(C)Cc1cc2cc(OCc3ccccc3)ccc2[nH]1 | > 100 µM | 22 µM | – | – | – | – | – | –
CC#CCN(C)Cc1cc2cc(OCc3ccccc3)ccc2n1C | > 100 µM | > 100 µM | – | – | – | – | – | –
C#CCN1CCc2nc3nc(N4CCCCC4)c(C#N)cc3c(N)c2C1 | 0.066 µM | 10 µM | 296 µM | 330 µM | – | – | – | –
C#CCN1CCc2nc3nc(Cl)c(C#N)cc3c(N)c2C1 | 1.4 µM | > 100 µM | 660 µM | 1050 µM | – | – | – | –
C#CCN1CCc2nc3nc(N4CCCC4)c(C#N)cc3c(N)c2C1 | 0.025 µM | 27 µM | 357 µM | 618 µM | 0.65 µM | 82 µM | 0.065 µM | –
CC#CCN(C)Cc1cc2cc(OCc3ccccc3)ccc2[nH]1 | > 100 µM | 7 µM | – | – | – | – | – | 7.1 µM
C#CCN1CCc2nc3nc(OC)c(C#N)cc3c(N)c2C1 | 0.54 µM | > 100 µM | > 100 µM | 495 µM | – | – | – | –
C#CCN1CCc2nc3ccccc3c(N)c2C1 | 1.5 µM | 6.6 µM | 617 µM | 241 µM | – | – | – | –
C#CCN(C)Cc1cc2cc(OCc3ccccc3)ccc2n1C | > 100 µM | > 100 µM | – | – | – | – | – | –
C#CCNCc1cc2cc(OCc3ccccc3)ccc2[nH]1 | > 100 µM | 43 µM | 0.022 µM | – | – | – | – | –
